# Results as given in patent publication US9200017B2, “Multimodal imaging of fibrin” (The General Hospital Corporation, priority 2009, dated 2015).
# System: Thrombus
# Assay: MR-PET imaging in a rabbit model of occlusive arterial thrombus
# Assay type: in vivo
# Details: i.v., MR angiogram with gadofosveset
# Protocol: The occlusive thrombus model was similar to the one described above. Briefly, a male New Zealand white rabbit (2.5 kg) was sedated with a mixture of ketamine and xylazine and anaesthetized with isoflurane (1-2% in 70% N2O and 30% O2) and body temperature was kept at 37.5° C. A day old autologous blood clot was injected into the right internal carotid artery (ICA). The femoral vein was cannulated for intravenous delivery of the imaging agents. Simultaneous PET and MR were acquired on a clinical 3T MRI-BrainPET scanner using a home-built receive surface coil and a CP transmit coil. After baseline MR scans were acquired, the compound 21 was administered at a dose of […]. The blood pool MR contrast agent gadofosveset was injected at a dose of 0.1 mmol Gd/kg to acquire an angiographic image.
substance,measurement,value
Gd3-EP-2104R-Cu [Compound 21],PET signal at occluded right internal carotid artery,hyperintense PET signal in the right internal carotid (ICA)
